Measured values published in PubChem BioAssay AID248 (DTP/NCI, 2004).
“And” between values parts separate entries of the source, which are not always exact repeats. Equal values may be shown once. Toxic doses and inconclusive results are not listed. Rule as the data show it: active = T/C of 150% or more; inactive = T/C below 125%.

Tested on: L1210 leukemia ip in BDF1 mice, survival T/C
Test: NCI In Vivo Anticancer Drug Screen. Data for tumor model L1210 Leukemia (intraperitoneal) in B6D2F1 (BDF1) mice
Conditions: endpoint: mean survival time, higher = longer survival
Method in brief: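 Mice bearing the transplanted tumor received compound or vehicle. Survival of the treated group was divided by that of the vehicle-treated control group to give the ratio.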

[1] = dose: 12.5 mg/kg/injection, schedule: Q01DX009 (ip), vehicle: Klucel (hydroxypropylcellulose) (HPC)
[2] = dose: 25.0 mg/kg/injection, schedule: Q01DX009 (ip), vehicle: Klucel (hydroxypropylcellulose) (HPC)
[3] = dose: 50.0 mg/kg/injection, schedule: Q01DX009 (ip), vehicle: Klucel (hydroxypropylcellulose) (HPC)
[4] = dose: 50.0 mg/kg/injection, schedule: Q01DX001 (ip), vehicle: Klucel (hydroxypropylcellulose) (HPC)
[5] = dose: 100.0 mg/kg/injection, schedule: Q01DX009 (ip), vehicle: Klucel (hydroxypropylcellulose) (HPC)
[6] = dose: 200.0 mg/kg/injection, schedule: Q01DX009 (ip), vehicle: Klucel (hydroxypropylcellulose) (HPC)
[7] = dose: 400.0 mg/kg/injection, schedule: Q01DX009 (ip), vehicle: Klucel (hydroxypropylcellulose) (HPC)
[8] = dose: 100.0 mg/kg/injection, schedule: Q01DX001 (ip), vehicle: saline
[9] = dose: 200.0 mg/kg/injection, schedule: Q01DX001 (ip), vehicle: saline
[10] = dose: 100.0 mg/kg/injection, schedule: Q04DX003 (ip), vehicle: Klucel (hydroxypropylcellulose) (HPC)
[11] = dose: 200.0 mg/kg/injection, schedule: Q04DX003 (ip), vehicle: Klucel (hydroxypropylcellulose) (HPC)
[12] = dose: 400.0 mg/kg/injection, schedule: Q04DX003 (ip), vehicle: Klucel (hydroxypropylcellulose) (HPC)
[13] = dose: 100.0 mg/kg/injection, schedule: Q04DX003 (ip), vehicle: saline
[14] = dose: 100.0 mg/kg/injection, schedule: Q04DX002 (ip), vehicle: saline with Tween-80
[15] = dose: 100.0 mg/kg/injection, schedule: Q01DX009 (ip), vehicle: saline
[16] = dose: 200.0 mg/kg/injection, schedule: Q01DX009 (ip), vehicle: saline
[17] = dose: 400.0 mg/kg/injection, schedule: Q01DX009 (ip), vehicle: saline
[18] = dose: 100.0 mg/kg/injection, schedule: Q04DX002 (ip), vehicle: Klucel (hydroxypropylcellulose) (HPC)
[19] = dose: 200.0 mg/kg/injection, schedule: Q04DX002 (ip), vehicle: Klucel (hydroxypropylcellulose) (HPC)
[20] = dose: 400.0 mg/kg/injection, schedule: Q04DX002 (ip), vehicle: Klucel (hydroxypropylcellulose) (HPC)
[21] = dose: 100.0 mg/kg/injection, schedule: Q01DX001 (ip), vehicle: Klucel (hydroxypropylcellulose) (HPC)
[22] = dose: 200.0 mg/kg/injection, schedule: Q01DX001 (ip), vehicle: Klucel (hydroxypropylcellulose) (HPC)

Measured: T/C

NNS(=O)(=O)c1ccc([N+](=O)[O-])cc1
inactive: [1] 109 % of control | [2] 106 % of control | [3] 101 % of control

CCCCNC(=O)Nc1ccc(Nc2ccccc2)cc1
inactive: dose: 100.0 mg/kg/injection, schedule: Q01DX009 (ip), vehicle: gum acacia 88 % of control | dose: 100.0 mg/kg/injection, schedule: Q04DX003 (ip), vehicle: gum acacia 88 % of control | dose: 200.0 mg/kg/injection, schedule: Q01DX009 (ip), vehicle: gum acacia 108 % of control | dose: 200.0 mg/kg/injection, schedule: Q04DX003 (ip), vehicle: gum acacia 96 % of control | dose: 400.0 mg/kg/injection, schedule: Q04DX003 (ip), vehicle: gum acacia 96 % of control

O=S(=O)(Cl)c1ccccc1Cl
inactive: [4] 101 % of control

C=C(C)C1Cc2c(ccc3c(=O)c4c(oc23)C(O)Oc2cc(OC)c(OC)cc2-4)O1 (stereo not drawn)
inactive: [5] 93 % of control | [6] 95 % of control | [7] 97 % of control

CCCCCCCCCCCCCCCCCC(=O)N/N=C/c1ccc(Cl)cc1
inactive: [5] 101 % of control and 88 % of control | [6] 102 % of control | [7] 98 % of control and 92 % of control

Cc1ccc2nc(Cl)cc(=O)n2c1
inactive: dose: 50.0 mg/kg/injection, schedule: Q01DX001 (ip), vehicle: saline 97 % of control | [8] 97 % of control | [9] 97 % of control

CC1(c2ccccc2)CC(c2ccccc2)=C(C#N)C(=O)N1 (stereo not drawn)
inactive: [8] 98 % of control | [9] 91 % of control | dose: 400.0 mg/kg/injection, schedule: Q01DX001 (ip), vehicle: saline 104 % of control

CCN(CC)CCN1C(=O)c2ccc3c4c(ccc(c24)C1=O)C(=O)N(CCN(CC)CC)C3=O
inactive: dose: 6.25 mg/kg/injection, schedule: Q01DX001 (ip), vehicle: saline 105 % of control | dose: 12.5 mg/kg/injection, schedule: Q01DX001 (ip), vehicle: saline 98 % of control

Clc1ccccc1C(N=Cc1ccc[nH]1)(c1ccccc1)c1ccccc1
inactive: [10] 90 % of control | [11] 93 % of control | [12] 93 % of control

C=CC(=O)N1CCOCC1
inactive: dose: 100.0 mg/kg/injection, schedule: Q04DX003 (ip), vehicle: saline with Tween-80 113 % of control | dose: 200.0 mg/kg/injection, schedule: Q04DX003 (ip), vehicle: saline with Tween-80 100 % of control | dose: 400.0 mg/kg/injection, schedule: Q04DX003 (ip), vehicle: saline with Tween-80 108 % of control

COc1cc2c(cc1OC)C(CCN1C(=O)c3ccccc3C1=O)=NCC2
inactive: dose: 25.0 mg/kg/injection, schedule: Q01DX009 (ip), vehicle: saline 97 % of control | dose: 50.0 mg/kg/injection, schedule: Q01DX009 (ip), vehicle: saline 101 % of control | [13] 97 % of control

CCCCCCCCCCCCCCCCCC[N+]1(C)CCOCC1
inactive: dose: 6.25 mg/kg/injection, schedule: Q01DX009 (ip), vehicle: Klucel (hydroxypropylcellulose) (HPC) 94 % of control | [1] 100 % of control | [2] 97 % of control

CCCCS(=O)(=O)N1CCCCC1C (stereo not drawn)
inactive: dose: 25.0 mg/kg/injection, schedule: Q04DX002 (ip), vehicle: saline with Tween-80 96 % of control | dose: 50.0 mg/kg/injection, schedule: Q04DX002 (ip), vehicle: saline with Tween-80 96 % of control | [14] 86 % of control

CC(=O)c1ccc(NC(=O)C(F)(F)F)cc1
inactive: dose: 50.0 mg/kg/injection, schedule: Q01DX001 (ip), vehicle: carboxymethylcellulose (CMC) 101 % of control | dose: 100.0 mg/kg/injection, schedule: Q01DX001 (ip), vehicle: carboxymethylcellulose (CMC) 95 % of control | dose: 200.0 mg/kg/injection, schedule: Q01DX001 (ip), vehicle: carboxymethylcellulose (CMC) 97 % of control | dose: 400.0 mg/kg/injection, schedule: Q01DX001 (ip), vehicle: carboxymethylcellulose (CMC) 92 % of control

O=C(Nc1ccc(C2=NCCN2)c(Cl)c1)c1cccc(C(=O)Nc2ccc(C3=NCCN3)c(Cl)c2)c1
inactive: dose: 15.0 mg/kg/injection, schedule: Q01DX Z (ip), vehicle: carboxymethylcellulose (CMC) 93 % of control | dose: 30.0 mg/kg/injection, schedule: Q01DX Z (ip), vehicle: carboxymethylcellulose (CMC) 86 % of control

Cc1ccc(S(=O)(=O)OCCC2(C)CC2)cc1
inactive: dose: 100.0 mg/kg/injection, schedule: Q01DX001 (ip), vehicle: saline with Tween-80 93 % of control | dose: 200.0 mg/kg/injection, schedule: Q01DX001 (ip), vehicle: saline with Tween-80 90 % of control | dose: 400.0 mg/kg/injection, schedule: Q01DX001 (ip), vehicle: saline with Tween-80 90 % of control

COc1ccc(/C=C2/COC/C(=C\c3ccc(OC)cc3)C2=O)cc1
inactive: [15] 91 % of control | [16] 91 % of control | [17] 91 % of control

NC(=O)NNC(=O)C(Cl)(Cl)Cl
inactive: dose: 25.0 mg/kg/injection, schedule: Q04DX002 (ip), vehicle: saline 108 % of control | dose: 50.0 mg/kg/injection, schedule: Q04DX002 (ip), vehicle: saline 99 % of control | dose: 100.0 mg/kg/injection, schedule: Q04DX002 (ip), vehicle: saline 101 % of control

CC(C)OC(=O)Nc1ccccc1
inactive: [5] 93 % of control | [18] 102 % of control | [6] 93 % of control | [19] 112 % of control | [7] 110 % of control | [20] 115 % of control

CCC(Cl)COP(=O)(OCC(Cl)CC)OC(CC)P(=O)(OCC(Cl)CC)OCC(Cl)CC (stereo not drawn)
inactive: [10] 93 % of control | [11] 93 % of control | [12] 95 % of control

Cc1cc[n+](CCC(N)=O)cc1
inactive: [15] 95 % of control | [13] 93 % of control | [16] 93 % of control | dose: 200.0 mg/kg/injection, schedule: Q04DX003 (ip), vehicle: saline 98 % of control | [17] 93 % of control | dose: 400.0 mg/kg/injection, schedule: Q04DX003 (ip), vehicle: saline 102 % of control

COC(=O)C(CC/C(=N\NC(N)=O)c1ccccc1)C(=O)OC
inactive: dose: 50.0 mg/kg/injection, schedule: Q01DX009 (ip), vehicle: saline with Tween-80 98 % of control | dose: 100.0 mg/kg/injection, schedule: Q01DX009 (ip), vehicle: saline with Tween-80 98 % of control | dose: 200.0 mg/kg/injection, schedule: Q01DX009 (ip), vehicle: saline with Tween-80 91 % of control

Nc1ccccc1SC1CC(=O)N(c2ccc3c(c2)OCO3)C1=O (stereo not drawn)
inactive: [14] 93 % of control | dose: 200.0 mg/kg/injection, schedule: Q04DX002 (ip), vehicle: saline with Tween-80 101 % of control | dose: 400.0 mg/kg/injection, schedule: Q04DX002 (ip), vehicle: saline with Tween-80 86 % of control

Cc1cccc(NC(=O)Nc2ccccc2)n1
inactive: [18] 98 % of control | [19] 103 % of control | [20] 103 % of control

Cc1cc(OCCOC(=O)Nc2ccccc2F)cc(C)c1Cl
inactive: [5] 93 % of control | [6] 101 % of control | [7] 103 % of control

O=NC1C(Cl)C2CC1C1C(Br)C(Br)CC21 (stereo not drawn)
inactive: dose: 12.5 mg/kg/injection, schedule: Q04DX003 (ip), vehicle: Klucel (hydroxypropylcellulose) (HPC) 100 % of control | [2] 93 % of control | dose: 25.0 mg/kg/injection, schedule: Q04DX003 (ip), vehicle: Klucel (hydroxypropylcellulose) (HPC) 102 % of control | [4] 95 % of control | [3] 93 % of control | dose: 50.0 mg/kg/injection, schedule: Q04DX003 (ip), vehicle: Klucel (hydroxypropylcellulose) (HPC) 100 % of control | [21] 92 % of control | [5] 88 % of control | dose: 150.0 mg/kg/injection, schedule: Q01DX009 (ip), vehicle: saline 90 % of control | [22] 89 % of control | dose: 335.0 mg/kg/injection, schedule: Q01DX009 (ip), vehicle: saline 94 % of control

Nc1ccc2oc(=O)c(C(=O)O)cc2c1
inactive: [21] 112 % of control | [22] 89 % of control
